In PubChem BioAssay (NCI):
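Cultured in 96-well plates, cells were exposed to test compound for 48 hours across five concentrations. TGI is the concentration that stops growth completely.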

Experiments:
Assay in all cases: NCI-60 cell line screen, 48 h
[1] = tested on: A498 renal
[2] = tested on: A549 NSCLC
[3] = tested on: CCRF-CEM leukemia
[4] = tested on: EKVX NSCLC
[5] = tested on: HL-60(TB) leukemia
[6] = tested on: K-562 leukemia
[7] = tested on: KM12 colon
[8] = tested on: M14 melanoma
[9] = tested on: MDA-N
[10] = tested on: NCI-H226 lung
[11] = tested on: NCI-H23 lung
[12] = tested on: OVCAR-3 ovarian
[13] = tested on: OVCAR-5 ovarian
[14] = tested on: PC-3 prostate
[15] = tested on: RPMI-8226 leukemia
[16] = tested on: RXF 393 renal
[17] = tested on: T-47D breast
[18] = tested on: UACC-257 melanoma
[19] = tested on: UACC-62 melanoma
[20] = tested on: UO-31 renal

SMILES | TGI [1] | TGI [2] | TGI [3] | TGI [4] | TGI [5] | TGI [6] | TGI [7] | TGI [8] | TGI [9] | TGI [10] | TGI [11] | TGI [12] | TGI [13] | TGI [14] | TGI [15] | TGI [16] | TGI [17] | TGI [18] | TGI [19] | TGI [20]
CCOC(=O)/C(O)=C(/C=NC(=S)c1ccncc1)C(=O)OCC | > 100 µM | > 100 µM | > 100 µM | > 100 µM | > 100 µM | > 100 µM | > 100 µM | > 100 µM | > 100 µM | > 100 µM | > 100 µM | > 28.8 µM | > 100 µM | > 100 µM | > 100 µM | > 100 µM | > 100 µM | > 100 µM | > 100 µM | > 100 µM
C=C(C)[C@@H](C(=O)OC)N1C(=O)c2ccccc2C1=O | > 100 µM | > 100 µM | > 100 µM | > 100 µM | > 100 µM | > 100 µM | > 100 µM | > 100 µM | > 100 µM | > 100 µM | > 100 µM | > 100 µM | > 100 µM | > 100 µM | > 100 µM | > 100 µM | > 100 µM | > 100 µM | > 100 µM | > 100 µM
O=P(O)(O)CN1CCN(CP(=O)(O)O)CCN(CP(=O)(O)O)CCN(CP(=O)(O)O)CC1 | > 100 µM | > 100 µM | > 100 µM | > 100 µM | 72.4 µM | > 100 µM | > 100 µM | > 100 µM | > 100 µM | > 100 µM | > 100 µM | > 100 µM | > 100 µM | > 100 µM | 93.5 µM | > 100 µM | > 100 µM | > 100 µM | > 100 µM | > 100 µM
Nc1ccc(C(=O)Nn2c(-c3ccccc3)nc3ccccc3c2=O)cc1 | > 100 µM | > 100 µM | > 100 µM | > 100 µM | > 100 µM | > 100 µM | > 100 µM | > 100 µM | > 100 µM | > 100 µM | > 100 µM | > 100 µM | > 100 µM | > 100 µM | > 100 µM | > 100 µM | > 100 µM | > 100 µM | > 100 µM | > 100 µM
O=C1NC(Nc2cccc(Cl)c2)=N/C1=C\c1ccc(Cl)c(Cl)c1 | 16.3 µM | 16 µM | 35.3 µM | 12.2 µM | 15.1 µM | 14.5 µM | 14.8 µM | 14.9 µM | 15.8 µM | 17.2 µM | 14.1 µM | 19.7 µM | 21.8 µM | 13.3 µM | 22.7 µM | 10.4 µM | 14.2 µM | 22.2 µM | 21.6 µM | 20.6 µM
CC(C)NC(=O)OCc1c(COC(=O)NC(C)C)c(-c2ccc[n+](COC(=O)CC(C)(C)C)c2)n2c1CCC2 | > 100 µM | > 100 µM | > 100 µM | > 100 µM | > 100 µM | > 100 µM | > 100 µM | > 100 µM | > 100 µM | > 100 µM | > 100 µM | > 100 µM | > 100 µM | > 100 µM | > 100 µM | > 100 µM | > 100 µM | > 100 µM | > 100 µM | > 100 µM
CC(=O)c1cccc2c1CC1(C2)Cc2ccc3c(c2C1=O)CCC3 (stereo not given) | > 100 µM | > 100 µM | > 100 µM | 83.3 µM | 21.3 µM | > 100 µM | > 100 µM | > 100 µM | > 100 µM | > 100 µM | > 100 µM | > 100 µM | > 100 µM | > 100 µM | > 100 µM | > 100 µM | > 100 µM | 43.9 µM | > 100 µM | > 100 µM
COC12C=CC(CC1)C(C)(C)C2=O (stereo not given) | > 100 µM | > 100 µM | > 100 µM | > 100 µM | > 100 µM | > 100 µM | > 100 µM | > 100 µM | > 100 µM | > 100 µM | > 100 µM | > 100 µM | > 100 µM | > 100 µM | > 100 µM | > 100 µM | > 100 µM | > 100 µM | > 100 µM | > 100 µM
CC(=O)NNc1nc(C)c(C(/C=C/c2cccc([N+](=O)[O-])c2)=N/NC(=S)NN)s1 | > 100 µM | > 100 µM | > 100 µM | > 100 µM | > 100 µM | > 100 µM | > 100 µM | > 100 µM | > 100 µM | > 100 µM | > 100 µM | > 100 µM | > 100 µM | > 100 µM | > 100 µM | > 100 µM | > 100 µM | > 100 µM | > 100 µM | > 100 µM
